Test results taken from patent US9982011B2, “Legumain activated doxorubicin derivative as well as preparation method and application thereof” (priority 2012, dated 2018).
“Also recorded” adds a separate entry of the source.

How the values were obtained:
BALB/C mice = test: Maximum tolerated dose (MTD) / acute toxicity of a single injection in mice; details: single injection; for Mortality rate (%) / Number of dead animal: 6 female BALB/C mice
Source text: Test purpose: to investigate the acute toxicity of the subject new drug formulation via MTD assay by intravenous administration to mice.
Test drug: S1 and S2 injections, diluted to the corresponding concentrations with physiological saline when tested.
Animal: the first class BALB/C mice, weighing 19-21 g and all mice being female.
Method and results: 36 female BALB/C mice weighing 19-21 g were randomly divided into 6 groups according to their body weights, with 6 mice in each group. […] Control tests were performed by injecting 0.2 ml physiological saline or doxorubicin hydrochloride. […] Blood samples were taken on the 3, 5 and 14 days for counting the whole blood cells. Animals were anatomized on day 14 to take the heart, liver, kidney, lung, spleen, and pancreas for HE staining.
The MTD for intravenous administration of a test drug is an important reference index for drug toxicity.

serum albumin = serum albumin (Mus musculus, UniProt P07724); details: blood taken 10 minutes after intravenous tail injection
Method: Bloods were taken after 10 minutes and centrifuged to obtain serum. The proteins in the serum were precipitated by 70% ethanol.

A549 = test: Efficacy at different doses in human non-small cell lung cancer A549 model; type: in vivo; details: FIG. 6
Source text: In some examples and many other tumor treatment modes of the present invention, efficacies of Succinyl-AANL-DOX (SEQ ID NO: 2) and EMC-AANL-DOX (SEQ ID NO: 2) were also studied and compared according to the same method as described above. […] Thus, EMC-AANL-DOX (SEQ ID NO: 2) could satisfy our requirements on clinical development.

serum albumin, sequence (P07724 25-608): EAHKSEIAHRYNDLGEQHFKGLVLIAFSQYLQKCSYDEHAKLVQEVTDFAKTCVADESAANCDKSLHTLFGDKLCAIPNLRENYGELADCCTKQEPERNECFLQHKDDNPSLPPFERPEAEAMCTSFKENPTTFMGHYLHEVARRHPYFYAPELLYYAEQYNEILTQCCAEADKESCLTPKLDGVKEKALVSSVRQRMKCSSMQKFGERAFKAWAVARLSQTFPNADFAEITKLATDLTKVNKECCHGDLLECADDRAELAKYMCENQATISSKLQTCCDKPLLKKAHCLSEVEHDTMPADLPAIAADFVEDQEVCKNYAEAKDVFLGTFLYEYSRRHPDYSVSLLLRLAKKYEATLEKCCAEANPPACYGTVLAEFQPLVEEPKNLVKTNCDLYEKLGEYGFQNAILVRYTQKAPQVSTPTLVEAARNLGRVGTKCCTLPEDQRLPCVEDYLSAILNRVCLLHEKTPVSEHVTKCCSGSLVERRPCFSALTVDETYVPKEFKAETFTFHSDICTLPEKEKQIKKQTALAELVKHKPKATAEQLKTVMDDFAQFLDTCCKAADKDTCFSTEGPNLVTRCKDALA

## COc1cccc2c1C(=O)c1c(O)c3c(c(O)c1C2=O)CC(O)(C(=O)CO)CC3OC1CC(NC(=O)C(CC(C)C)NC(=O)C(CC(N)=O)NC(=O)C(C)NC(=O)C(C)NC(=O)CCCCCN2C(=O)C=CC2=O)C(O)C(C)O1 (centres unmarked) [Example S1, EMC-AANL-Doxorubicin]
BALB/C mice; 50 mg/kg
  Mortality rate (%): 0%
BALB/C mice; 50 mg/kg, observed 17 days
  Number of dead animal: 0
BALB/C mice; 100 mg/kg
  Mortality rate (%): 0%
  Number of dead animal: 0
BALB/C mice; 150 mg/kg
  Mortality rate (%): 0%
  Number of dead animal: 0
BALB/C mice; 150 mg/kg, mice
  Abnormal behaviors and death observed: no pilo-erection, hair tousle and lackluster, lethargy, stoop, irritable reaction and death were observed
BALB/C mice; 200 mg/kg
  Mortality rate (%): 33.3%
  Number of dead animal: 2
BALB/C mice; 300 mg/kg
  Mortality rate (%): 100%
  Number of dead animal: 5
BALB/C mice; mice
  MTD: > 100 µmol/kg
Serum albumin
  Binding to serum albumin / plasma protein in blood: most of S1 could bind to serum albumin and thus precipitated; also recorded: most of S1 bound to the plasma protein
A549
  Effect on tumor in A549 model (in words): could completely kill the tumor, with no recurrence of tumor in the later stage of the treatment
